The target in assay [1] is T1, STAT4 (Homo sapiens, UniProt Q14765).
T1 sequence (Q14765 1-748): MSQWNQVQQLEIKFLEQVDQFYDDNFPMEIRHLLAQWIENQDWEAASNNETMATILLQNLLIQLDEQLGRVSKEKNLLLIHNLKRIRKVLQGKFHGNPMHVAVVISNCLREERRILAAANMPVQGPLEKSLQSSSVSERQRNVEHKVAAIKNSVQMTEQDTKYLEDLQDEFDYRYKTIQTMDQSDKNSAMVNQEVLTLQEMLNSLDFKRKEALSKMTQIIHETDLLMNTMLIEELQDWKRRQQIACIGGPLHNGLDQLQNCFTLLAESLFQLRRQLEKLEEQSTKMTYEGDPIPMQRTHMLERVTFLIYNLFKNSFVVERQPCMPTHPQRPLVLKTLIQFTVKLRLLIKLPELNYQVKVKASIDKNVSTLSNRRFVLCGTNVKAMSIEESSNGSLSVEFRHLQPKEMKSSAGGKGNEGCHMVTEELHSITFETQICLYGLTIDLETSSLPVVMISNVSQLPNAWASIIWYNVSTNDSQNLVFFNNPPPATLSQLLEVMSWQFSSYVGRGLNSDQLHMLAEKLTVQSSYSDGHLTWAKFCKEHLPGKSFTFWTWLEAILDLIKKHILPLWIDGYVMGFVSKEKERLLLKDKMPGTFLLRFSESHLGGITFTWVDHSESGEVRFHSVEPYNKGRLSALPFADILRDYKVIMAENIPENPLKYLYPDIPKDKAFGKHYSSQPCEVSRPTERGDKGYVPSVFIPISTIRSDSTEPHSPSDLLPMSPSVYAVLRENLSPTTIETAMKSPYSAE
As to the kind of experiment: CETSA of STAT4 in lysates from NK-92 cells. Format: binding. More on the design: utilizing cellular lysates from the STAT4‐expressing natural killer cell line NK‐92; endogenous in cells; host or cells: NK-92 (DSMZ). As to conditions: 100 µM; for ΔT agg of STAT4 / T agg of STAT4 (average): CETSA, NK-92 cell lysates; for ΔT agg of STAT4: versus DMSO control; for T agg of STAT4 (average): DMSO control 48.7 ± 0.5 °C, n = 3; for Tagg (STAT4) 3 independent experiments: individual CETSA experiments, in °C (unit assumed). Here is the method:
(§1) NK-92 cells (DSMZ) were cultured in α-MEM containing 12.5% fetal bovine serum (FBS), 12.5% horse serum, 2 mM L-glutamine, penicillin/streptomycin and 50 U/ml IL -2. […]
NK-92 cell lysates were prepared for CETSA experiments by washing cultured cells once with TBS and resuspending in TBS supplemented with Halt Protease In hibitor Cocktail, EDTA-free (Fisher Scientific) at 3 x 10^6 cells per 100 µl. […]
CETSA experiments were performed essentially using the published protocol. Briefly, NK-92 cell lysates were incubated with test compound or DMSO for 15 min at room temperature (final DMSO concentration 2%). During this time, the treated lysate was divided into 10x 50 µl aliquots in 0.2 ml reaction tubes. Samples were then heated to the designated temperatures in a Veriti Pro Thermocycler (Thermo Fishe r Scientific) for 3 min, followed by 3 min incubation at room temperature, and then placed on ice. The samples were transferred to 1.5 ml tubes before centrifugation at 20,000 g for 20 min at 4 °C, to remove aggregated proteins. The soluble fractions were subsequently analyzed by Western blotting.
(§2) The components of cell lysates from treated cells, or heat-treated lysates from CETSA, were separated by SDS-PAGE (10%), transferred to nitrocellulose membrane (Bio-Rad) and detected using monoclonal rabbit primary antibodies (Cell Signaling), α-rabbit-HRP secondary antibody (Dako) and Western Lightning Plus chemiluminescence reagent (Perkin Elmer).
(§3) Bands were visualized using an ImageQuant system (GE Healthcare) and quantitated using ImageJ software (NIH). […]
(§4) The sitting drop was composed of 0.1 µl protein solution and 0.1 µl reservoir solution. Plates were stored at 19°C in a protein […]
(§5) In the first set of experiments, w e tried to crystallize STAT4 as a SUMO -STAT4 fusion protein […]
(§6) was cleaved off as described above.
(§7) Screening for crystallization conditions for tag-free STAT4 was performed both in the absence or presence of 1 equivalent of 6m or 6h. Since the chosen protein concentration of 3.6 mg/ml appeared to be too low, screening was repeated with a higher concentration of 6.4 mg/ml STAT4 for all conditions (corresponding to 100 µM 6m). Both the SUMO-STAT4 and the tag-free STAT4 preferentially precipitated under conditions containing polyethylene glycol. In one set of experiments, we also screened for conditions in the presence of the high-affinity peptide GY(PO3H2)LPQNID adapted from the IL-12 receptor. However, none of the conditions resulted in the growth of STAT4 crystals (Table S4).

Assay [2] has as its target T1, STAT4. As to the kind of experiment: IL-12-induced STAT4 Tyr693 phosphorylation in NK-92 cells (Western blot). Format: cell-based. Also on record: utilizing cellular lysates from the STAT4‐expressing natural killer cell line NK‐92; endogenous in cells; host or cells: NK-92 (DSMZ). As to conditions: treatment for 2 h (Figure S4). Here is the method: as §1, §2, §3, §4, §5, §6, §7
Background: Immunoblotting shows a protein as a band on a membrane.

The target of a further assay is T2, wild‐type STAT4 (Homo sapiens, UniProt Q14765).
T2 construct: 6xHis; made in house
T2 sequence (Q14765 1-748): T1 sequence (Q14765 1-748)
As to the kind of experiment: Isothermal titration calorimetry (ITC), wild-type STAT4. As to conditions: for Kd: ITC, 25 °C, one-site binding model, read-out: K d (ITC), wild-type STAT4. The assay is classed as binding. As to the method: Isothermal Titration Calorimetry
Purification of 6xHis-tagged proteins for ITC experiments was carried out by affinity chromatography on His-Bind resin. The eluting fractions were analyzed by SDS -PAGE.
Proteins were dialyzed against ITC buffer (10 mM Tris pH 8.0, 50 mM NaCl) using dialysi s tubing with a 50 kDa cut-off. ITC experiments were performed using a VP-ITC Micro Calorimeter (MicroCal). 6m was dissolved as a 100 mM stock in DMSO and diluted 1/1000 in ITC buffer (Tris pH 8.0 and 50 mM NaCl), resulting in a final concentration of 100 µM. 8k was dissolved as a 5 mM stock in ITC buffer and diluted 1/25 in ITC buffer with DMSO, resulting in a final concentration of 200 µM 8k. DMSO was added to a final concentration of 2% (v/v). To avoid errors caused by the detection of dilution heat, 0.1 % (v/v) DMSO for 6m or 2% (v/v) DMSO for 8k experiments was added to the buffers containing the proteins and to the reference buffer. Proteins were degassed before the experiments using a ThermoVac sample degassing station. The following conditions were used for ITC experiments: 10 µM STAT4 protein for 6m or 20 µM STAT4 protein for 8k experiments, 100 µM 6m or 200 µM 8k, 28 injections with 10 µL single injection volume, 250 s initial delay, 500 s spacing between injections, 250 µcal/s reference power, 300 rpm stirring at 25 °C for 6m or 220 rpm stirring at 25 °C for 8k. Data analysis was performed using NITPIC[1, 5] and SEDPHAT,[6] applying a low-noise integration approach. Data were fitted using a one-site binding model. Figures were generated using GUSSI.[7] Experiments were carried out in quadruplicate for 6m and triplicate
(In general: ITC needs no label: the signal is the heat of the interaction.)

Structures are written as SMILES. Values joined by “and” are separate entries in the source; they are usually repeats but may differ in a detail not shown here. Equal values may be shown once. “Also recorded” adds a separate entry of the source.

Consider `O=P(O)(O)C(F)(F)c1ccc(-c2ccc3ccccc3c2)cc1F` [Compound 8a], for which, at STAT4 [1], the “ΔT agg of STAT4” value is 1.1 °C; the “T agg of STAT4 (average)” value is 49.8 ± 0.1 °C and 49.8 °C; the “Tagg (STAT4) 3 independent experiments” value is 49.9 and 49.7 and 49.8.

`Cc1cc(-c2ccc(C(F)(F)P(=O)(O)O)c(F)c2)cs1` [Compound 8k]: the “inhibition of IL‐12‐induced STAT4 Tyr693 phosphorylation” value on STAT4 [2] is listed as “unable to inhibit; also recorded: does not inhibit”. Also, the Kd on wild‐type STAT4 was 7.1 ± 1.1 µM. Also, on wild‐type STAT4 (Kd (ITC) higher than IC50 (FP), STAT4), the “dissociation constant (ITC) relative to IC50 value in FP assays” value turned out to be 2 fold. Also, on STAT4 [1], the “ΔT agg of STAT4” value stood at 1.3 °C; the “T agg of STAT4 (average)” value was 50.0 ± 0.5 °C and 50.0 °C; the “Tagg (STAT4) 3 independent experiments” value was 50.5 and 49.6 and 49.8.

`O=P(O)(O)Oc1ccc(-c2ccc3ccccc3c2)cc1F` [Compound 6m]: the Kd at wild‐type STAT4 is 1.3 ± 0.3 µM.

Values taken from article PMC12087874, “Biaryl Phosphates and Phosphonates as Selective Inhibitors of the Transcription Factor STAT4” (Angewandte Chemie (International Ed. in English), 2025).
